Like-named read-outs stand apart in the source and are kept apart here.
How the values were obtained:
EGFR [L858R/T790M] = EGFR [L858R/T790M] (Homo sapiens (Human), UniProt P00533, L858R/T790M); assay: Kinase inhibition assay (HTRF), EGFR [L858R/T790M]; format: biochemical; conditions: HTRF Kinase TK kit, 10 min pre-incubation, 20 min reaction; read-out: EGFR(L858R/T790M) IC50
WT EGFR = WT EGFR (Homo sapiens (Human), UniProt P00533); assay: Kinase inhibition assay (HTRF), WT EGFR; format: biochemical; conditions: HTRF Kinase TK kit, 10 min pre-incubation, 20 min reaction
Chain of WT EGFR (P00533 25-1210): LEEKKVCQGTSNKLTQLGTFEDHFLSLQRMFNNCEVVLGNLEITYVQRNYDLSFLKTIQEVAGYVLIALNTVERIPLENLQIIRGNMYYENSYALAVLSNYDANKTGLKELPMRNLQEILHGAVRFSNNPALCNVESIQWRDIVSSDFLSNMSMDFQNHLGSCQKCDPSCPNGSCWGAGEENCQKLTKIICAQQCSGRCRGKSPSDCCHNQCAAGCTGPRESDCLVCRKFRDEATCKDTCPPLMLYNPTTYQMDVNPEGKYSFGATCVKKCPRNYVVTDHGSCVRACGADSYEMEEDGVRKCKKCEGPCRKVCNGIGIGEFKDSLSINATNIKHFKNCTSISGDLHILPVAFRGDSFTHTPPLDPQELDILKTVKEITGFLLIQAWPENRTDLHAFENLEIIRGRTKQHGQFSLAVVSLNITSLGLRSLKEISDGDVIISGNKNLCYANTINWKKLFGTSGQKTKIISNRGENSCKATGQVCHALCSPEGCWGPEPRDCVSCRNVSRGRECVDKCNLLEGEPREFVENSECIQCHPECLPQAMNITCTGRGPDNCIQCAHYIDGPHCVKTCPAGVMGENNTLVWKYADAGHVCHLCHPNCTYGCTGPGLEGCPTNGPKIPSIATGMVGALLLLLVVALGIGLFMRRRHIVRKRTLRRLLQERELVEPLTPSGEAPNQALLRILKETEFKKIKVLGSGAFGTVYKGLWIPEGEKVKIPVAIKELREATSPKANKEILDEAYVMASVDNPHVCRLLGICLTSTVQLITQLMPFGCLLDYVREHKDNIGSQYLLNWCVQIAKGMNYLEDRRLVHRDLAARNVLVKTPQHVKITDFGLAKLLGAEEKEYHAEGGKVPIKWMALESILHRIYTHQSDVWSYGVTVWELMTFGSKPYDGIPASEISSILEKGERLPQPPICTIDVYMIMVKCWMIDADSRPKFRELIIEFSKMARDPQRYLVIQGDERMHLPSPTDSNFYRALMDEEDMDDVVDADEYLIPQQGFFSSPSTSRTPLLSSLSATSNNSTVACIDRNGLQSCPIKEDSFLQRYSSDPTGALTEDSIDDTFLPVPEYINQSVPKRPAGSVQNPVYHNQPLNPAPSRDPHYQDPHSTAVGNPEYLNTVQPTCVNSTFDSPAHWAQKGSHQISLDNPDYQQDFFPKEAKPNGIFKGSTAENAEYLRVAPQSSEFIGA

[1] = tested on: lung cancer cells HCC827 (Del19); assay: Cytotoxicity test (MTS cell viability), HCC827; format: cell-based; conditions: Homo sapiens
[2] = tested on: Skin cancer cell line A431 (WT); assay: Cytotoxicity test (MTS cell viability), A431; format: cell-based; conditions: Homo sapiens, A-431; MTS, 72 hours; read-out: A431 (WT) IC50
[3] = HCC827, MTS, 72 hours, read-out: HCC827 (Del19) IC50

Chain of EGFR [L858R/T790M] (P00533 25-1210 T790M/L858R): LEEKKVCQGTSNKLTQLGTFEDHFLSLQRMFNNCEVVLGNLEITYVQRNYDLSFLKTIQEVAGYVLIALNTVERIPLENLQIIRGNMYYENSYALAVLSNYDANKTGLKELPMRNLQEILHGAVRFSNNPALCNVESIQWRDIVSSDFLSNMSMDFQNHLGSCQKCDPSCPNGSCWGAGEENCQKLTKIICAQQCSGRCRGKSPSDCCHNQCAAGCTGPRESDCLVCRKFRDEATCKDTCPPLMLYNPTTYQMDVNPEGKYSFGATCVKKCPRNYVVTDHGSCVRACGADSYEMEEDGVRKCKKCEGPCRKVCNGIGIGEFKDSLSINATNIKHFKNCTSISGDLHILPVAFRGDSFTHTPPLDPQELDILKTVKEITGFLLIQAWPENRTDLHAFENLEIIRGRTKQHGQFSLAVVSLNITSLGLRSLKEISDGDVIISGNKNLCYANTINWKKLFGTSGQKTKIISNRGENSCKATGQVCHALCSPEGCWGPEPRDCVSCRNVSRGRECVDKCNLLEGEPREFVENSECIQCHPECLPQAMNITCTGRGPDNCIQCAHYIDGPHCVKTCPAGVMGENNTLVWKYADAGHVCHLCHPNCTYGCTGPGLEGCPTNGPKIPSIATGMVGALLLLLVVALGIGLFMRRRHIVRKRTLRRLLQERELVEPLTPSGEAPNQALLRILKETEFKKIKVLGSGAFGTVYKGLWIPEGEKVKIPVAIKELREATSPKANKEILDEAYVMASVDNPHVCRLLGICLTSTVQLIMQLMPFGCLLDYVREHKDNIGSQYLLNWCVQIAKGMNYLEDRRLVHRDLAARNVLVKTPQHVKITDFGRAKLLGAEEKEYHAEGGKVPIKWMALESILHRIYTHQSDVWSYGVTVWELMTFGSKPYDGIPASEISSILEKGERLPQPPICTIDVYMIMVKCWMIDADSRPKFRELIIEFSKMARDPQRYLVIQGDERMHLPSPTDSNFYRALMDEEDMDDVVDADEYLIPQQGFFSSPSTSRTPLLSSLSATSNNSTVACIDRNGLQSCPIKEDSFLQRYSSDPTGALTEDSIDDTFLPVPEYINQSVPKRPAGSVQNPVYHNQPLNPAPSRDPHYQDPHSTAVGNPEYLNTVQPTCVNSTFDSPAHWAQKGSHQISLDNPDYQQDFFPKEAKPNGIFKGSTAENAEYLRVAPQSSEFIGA

| IC50 (EGFR [L858R/T790M]) | IC50 (WT EGFR) | Structure (SMILES) | IC50 [1, 3] | IC50 [2] | IC50 ([1]; HCC827, 72 h, read-out: HCC827 (Del19) IC50(nM)) |
| --- | --- | --- | --- | --- | --- |
| 0.001 to 0.05 µM | 0.001 to 0.05 µM | C=CC(=O)Nc1cc(Nc2nccc(-c3cc(F)c4nc(OC(C)C)n(C(C)C)c4c3)n2)c(OC)cc1N(C)CCN(C)C [Example 61, N-(2-((2-(dimethylamino)ethyl)(methyl)amino)-5-((4-(4-fluoro-2-isopropoxy-1-isopropyl-1H-benzo[d]imidazol-6-yl)pyrimidin-2-yl)amino)-4-methoxyphenyl)acrylamide] | 10 to 100 nM | 0.1 to 0.4 µM | – |
| < 0.001 µM | 0.001 to 0.05 µM | C=CC(=O)Nc1cc(Nc2nccc(-c3cc(F)c4nc(C)n(C(C)C)c4c3)n2)c(OC)cc1N(C)CCN(C)C [Example 53, N-(2-((2-(dimethylamino)ethyl)(methyl)amino)-5-((4-(4-fluoro-1-isopropyl-2-methyl-1H-benzo[d]imidazole-6-yl)pyrimidin-2-yl)amino)-4-methoxyphenyl)acrylamide] | < 10 nM | 0.4 to 1 µM | – |
| 0.001 to 0.05 µM | 0.001 to 0.05 µM | C=CC(=O)Nc1cc(Nc2ncc(F)c(-c3cc(F)c4nc(C)c(C(=C)C)n4c3)n2)c(OC)cc1N(C)CCN(C)C [Example 56, N-(2-((2-(dimethylamino)ethyl)(methyl)amino)-5-((5-fluoro-4-(8-fluoro-2-methyl-3-(prop-1-en-2-yl)imidazo[1,2-a]pyridine-6-yl)pyrimidin-2-yl)amino)-4-methoxyphenyl)acrylamide] | 10 to 100 nM | > 1 µM | – |
| 0.001 to 0.05 µM | 0.001 to 0.05 µM | C=CC(=O)Nc1cc(Nc2nccc(-c3cc(F)c4nc5n(c4c3)CC(C)(C)O5)n2)c(OC)cc1N(C)CCN(C)C [Example 66, N-(2-((2-(dimethylamino)ethyl)(methyl)amino)-5-((4-(8-fluoro-2,2-dimethyl-2,3-dihydrobenzo[4,5]imidazo[2,1-b]oxazol-6-yl)pyrimidin-2-yl)amino)-4-methoxyphenyl)acrylamide] | 10 to 100 nM | 0.4 to 1 µM | – |
| 0.001 to 0.05 µM | > 0.1 µM | C=C(C)c1c(C)nc2c(F)cc(-c3nc(Nc4ccc(N5CCN(C)CC5)cc4OC)ncc3F)cn12 [Example 57, 5-fluoro-4-(8-fluoro-2-methyl-3-(prop-1-en-2-yl)imidazo[1,2-a]pyridine-6-yl)-N-(2-methoxy-4-(4-methylpiperazin-1-yl)phenyl)pyrimidin-2-amine] | > 1000 nM | > 1 µM | – |
| < 0.001 µM | 0.001 to 0.05 µM | C=CC(=O)Nc1cc(Nc2nccc(-c3cc(F)c4nc(OCC(F)F)n(C(C)C)c4c3)n2)c(OC)cc1N(C)CCN(C)C [Example 64, N-(5-((4-(2-(2,2-difluoroethoxy)-4-fluoro-1-isopropyl-1H-benzo[d]imidazol-6-yl)pyrimidin-2-yl)amino)-2-((2-(dimethylamino)ethyl)(methyl)amino)-4-methoxyphenyl)acrylamide] | 10 to 100 nM | 0.1 to 0.4 µM | – |
| < 0.001 µM | 0.001 to 0.05 µM | C=CC(=O)Nc1cc(Nc2nccc(-c3cc(F)c4nc(C(F)F)n(C(C)C)c4c3)n2)c(OC)cc1N(C)CCN(C)C [Example 60, N-(5-((4-(2-(difluoromethyl)-4-fluoro-1-isopropyl-1H-benzo[d]imidazol-6-yl)pyrimidin-2-yl)amino)-2-((2-(dimethylamino)ethyl)(methyl)amino)-4-methoxyphenyl)acrylamide] | 10 to 100 nM | 0.4 to 1 µM | – |

Second part, the compound before the results:

| Structure (SMILES) | IC50 (EGFR [L858R/T790M]) | IC50 (WT EGFR) | IC50 [1, 3] | IC50 [2] | IC50 ([1]; HCC827, 72 h, read-out: HCC827 (Del19) IC50(nM)) |
| --- | --- | --- | --- | --- | --- |
| C=CC(=O)Nc1cc(Nc2ncc(Br)c(-c3cc(F)c4nc(C)n(C(C)C)c4c3)n2)c(OC)cc1N(C)CCN(C)C [Example 8, N-(2-((2-(dimethylamino)ethyl)(methyl)amino)-5-((5-bromo-4-(4-fluoro-1-isopropyl-2-methyl-1H-benzo[d]imidazole-6-yl)pyrimidin-2-yl)amino)-4-methoxyphenyl)acrylamide] | 0.001 to 0.05 µM | 0.001 to 0.05 µM | 10 to 100 nM | > 1 µM | – |
| C=CC(=O)Nc1cc(Nc2nccc(-c3cc(F)c4cnn(C(C)C)c4c3)n2)c(OC)cc1N(C)CCN(C)C [Example 26, N-(2-((2-(dimethylamino)ethyl)(methyl)amino)-5-((4-(4-fluoro-1-isopropyl-1H-indazole-6-yl)pyrimidin-2-yl)amino)-4-methoxyphenyl)acrylamide] | < 0.001 µM | 0.001 to 0.05 µM | 10 to 100 nM | 0.4 to 1 µM | – |
| C=CC(=O)Nc1cc(Nc2nccc(-c3ccc4nccn4n3)n2)c(OC)cc1N(C)CCN(C)C [Example 43, N-(2-((2-(dimethylamino)ethyl)(methyl)amino)-5-((4-(imidazo[1,2-b]pyridazine-6-yl)pyrimidin-2-yl)amino)-4-methoxyphenyl)acrylamide] | 0.001 to 0.05 µM | 0.05 to 0.1 µM | 100 to 400 nM | > 1 µM | – |
| [2H]C([2H])([2H])c1nc2ccc(-c3ccnc(Nc4cc(NC(=O)C=C)c(N(C)CCN(C)C)cc4OC)n3)cc2n1C(C)C [Example 50, N-(2-((2-(dimethylamino)ethyl)(methyl)amino)-5-((4-(1-isopropyl-2-(methyl-d3)-1H-benzo[d]imidazole-6-yl)pyrimidin-2-yl)amino)-4-methoxyphenyl)acrylamide] | 0.001 to 0.05 µM | 0.001 to 0.05 µM | 10 to 100 nM | 0.1 to 0.4 µM | – |
| C=CC(=O)Nc1cc(Nc2nccc(-c3cc(F)c4nc(CF)n(C(C)C)c4c3)n2)c(OC)cc1N(C)CCN(C)C [Example 21, N-(2-((2-(dimethylamino)ethyl)(methyl)amino)-5-((4-(4-fluoro-2-(fluoromethyl)-1-isopropyl-1H-benzo[d]imidazole-6-yl)pyrimidin-2-yl)amino)-4-methoxyphenyl)acrylamide] | < 0.001 µM | 0.001 to 0.05 µM | < 10 nM | 0.1 to 0.4 µM | – |
| C=CC(=O)Nc1cc(Nc2nccc(-c3cc(F)c4nc(C)n(C(C)C)c4c3)n2)c(OC)cc1N1CCC(O)CC1 [Example 17, N-(2-(4-hydroxypiperidine-1-yl)-5-((4-(4-fluoro-1-isopropyl-2-methyl-1H-benzo[d]imidazole-6-yl)pyrimidin-2-yl)amino)-4-methoxyphenyl)acrylamide] | 0.001 to 0.05 µM | > 0.1 µM | – | > 1 µM | 100 to 400 nM |
| C=CC(=O)Nc1cc(Nc2nccc(-c3cc(OC(C)(C)C)c4nc(C)n(C(C)C)c4c3)n2)c(OC)cc1N(C)CCN(C)C [Example 30, N-(5-((4-(4-(tert-butoxy)-1-isopropyl-2-methyl-1H-benzo[d]imidazole-6-yl)pyrimidin-2-yl)amino)-2-((2-(dimethylamino)ethyl)(methyl)amino)-4-methoxyphenyl)acrylamide] | < 0.001 µM | < 0.001 µM | < 10 nM | > 1 µM | – |
| [2H]C(C)(C)n1c(C)nc2ccc(-c3ccnc(Nc4cc(NC(=O)C=C)c(N(C)CCN(C)C)cc4OC)n3)cc21 [Example 51, N-(2-((2-(dimethylamino)ethyl)(methyl)amino)-4-methoxy-5-((4-(2-methyl-1-(propyl-2-yl-2-d)-1H-benzo[d]imidazole-6-yl)pyrimidin-2-yl)amino)phenyl)acrylamide] | 0.001 to 0.05 µM | 0.001 to 0.05 µM | 10 to 100 nM | 0.1 to 0.4 µM | – |
| C=CC(=O)Nc1cc(Nc2nccc(-c3cc4c5c(c3)n(C(C)C)c(=O)n5CCC4)n2)c(OC)cc1N(C)CCN(C)C [Example 44, N-(2-((2-(dimethylamino)ethyl)(methyl)amino)-5-((4-(1-isopropyl-2-oxo-1,2,5,6-tetrahydro-4H-imidazo[4,5,1-ij]quinolin-8-yl)pyrimidin-2-yl)amino)-4-methoxyphenyl)acrylamide] | < 0.001 µM | 0.001 to 0.05 µM | < 10 nM | 0.4 to 1 µM | – |
| C=CC(=O)Nc1cc(Nc2ncc(F)c(-c3cc(F)c4nc(C)c(C(C)C)n4c3)n2)c(OC)cc1N(C)CCN(C)C [Example 34, N-(2-((2-(dimethylamino)ethyl)(methyl)amino)-5-((5-fluoro-4-(8-fluoro-3-isopropyl-2-methylimidazo[1,2-a]pyridine-6-yl)pyrimidin-2-yl)amino)-4-methoxyphenyl)acrylamide] | < 0.001 µM | 0.001 to 0.05 µM | 10 to 100 nM | > 1 µM | – |
| C=CC(=O)Nc1cc(Nc2nccc(-c3cc(F)c4nc(C)cn4c3)n2)c(OC)cc1N(C)CCN(C)C [Example 29, N-(2-((2-(dimethylamino)ethyl)(methyl)amino)-5-((4-(8-fluoro-2-methylimidazo[1,2-a]pyridine-6-yl)pyrimidin-2-yl)amino)-4-methoxyphenyl)acrylamide] | 0.001 to 0.05 µM | 0.001 to 0.05 µM | 100 to 400 nM | 0.4 to 1 µM | – |
| C=CC(=O)Nc1cc(Nc2nccc(-c3cc(F)c4nc(C)oc4c3)n2)c(OC)cc1N(C)CCN(C)C [Example 32, N-(2-((2-(dimethylamino)ethyl)(methyl)amino)-5-((4-(4-fluoro-2-methylbenzo[d]oxazole-6-yl)pyrimidin-2-yl)amino)-4-methoxyphenyl)acrylamide] | 0.001 to 0.05 µM | 0.001 to 0.05 µM | 10 to 100 nM | > 1 µM | – |
| C=CC(=O)Nc1cc(Nc2nccc(-c3ccc4nc(OC)n(C(C)C)c4c3)n2)c(OC)cc1N(C)CCN(C)C [Example 24, N-(2-((2-(dimethylamino)ethyl)(methyl)amino)-5-((4-(1-isopropyl-2-methoxy-1H-benzo[d]imidazole-6-yl)pyrimidin-2-yl)amino)-4-methoxyphenyl)acrylamide] | 0.001 to 0.05 µM | 0.001 to 0.05 µM | 10 to 100 nM | 0.4 to 1 µM | – |

— patent US11111233B2, “Amino pyrimidine compound for inhibiting protein tyrosine kinase activity” (Shenzhen TargetRx, Inc., priority 2016, dated 2021)
